# Like-named read-outs stand apart in the source and are kept apart here.
# Tested on: L1210 Leukämiezellen
# Experiment: Colony formation of L1210 leukemia cells in soft agar
# Assay type: cell-based, Maus
# Details: for IC50: Mus musculus
# Text: Die zytostatische Wirksamkeit der erfindungsgemäßen Verbindungen wurde anhand von L1210 Leukämiezellen der Maus getestet. Hierzu wurde die Koloniebildung von L1210 Leukämiezellen in Agarplatten herangezogen. Diese Methode dient zum Nachweis des Einflusses der Testsubstanzen auf das Wachstumsverhalten der Zellen nach Inkubation von 1 Stunde oder über mehrere Generationen. Bei einer Zelzykluszeit von 10-12 Stunden werden dabei in der Testzeit von 7 Tagen etwa 14 aufeinanderfolgende Generationen beobachtet. Die erfindungsgemäßen zytostatisch wirksamen Substanzen bewirken in diesem Test eine Reduktion der zu beobachtenden Koloniezahl gegenüber einer unbehandelten Kontrollprobe.
# Einzelheiten des Testverfahrens ergeben sich aus der nachfolgenden Verfahrensweise zur Ermittlung der Koloniebildung.
# Verfahrensweise zur Ermittlung der Koloniebildung von L1210 Leukämiezellen in Soft-Agar
# 500 Leukämiezellen pro Platte wurden mit unterschiedlichen Konzentrationen der Testsubstanz 1 Stunde bei 37°C inkubiert. Anschließend wurden die Zellen zweimal mit McCoy5A-Medium gewaschen und schließlich in Petrischalen nach Zugabe von 0,3 % Agar ausgegossen. Kontrollen wurden lediglich mit frischem Medium inkubiert. Anstelle der einstündigen Inkubation wurden in manchen Fällen unterschiedliche Konzentrationen und Testsubstanzen der oberen Agarschicht zugemischt, um so eine kontinuierliche Exposition der Zellen über die gesamte Inkubationszeit zu erreichen. Nach Erstarren des Agars wurden die Platten im Brutschrank 7 Tage bei 37°C inkubiert (5 Vol.-% CO₂, 94 % relative Luftfeuchtigkeit). Anschließend wurde die Zahl der entstandenen Kolonien mit einem Durchmesser von mehr als 60 µm gezählt. Die Ergebnisse wurden angegeben als Koloniezahl in behandelten Agarplatten in Prozent der unbehandelten Kontrolle. Aus der so erhaltenen Dosiswirkungskruve wurde die IC₅₀ als Maß für die Wirksamkeit der Substanz ermittelt. Die Ergebnisse für die hier beschriebenen Verbindungen im Vergleich zu Adriamycin sind in der nachfolgenden Tabelle 1 zusammengefaßt.
# [1] = L1210, 168 h, continuous exposure: substance mixed into upper agar layer for the whole 7-day incubation at 37°C, colonies > 60 µm counted, percent of untreated control, read-out: Dauerinkubation IC50
# [2] = L1210, 1 h incubation with substance at 37°C, cells washed twice, then plated in 0,3 % agar for 7 days, colonies > 60 µm counted, read-out: 1h-Inkubation IC50
# [3] = L1210, read-out: 1h-Inkubation IC50
# [4] = L1210, 168 h, read-out: Dauerinkubation IC50
# [5] = 1 h incubation with substance at 37°C, cells washed twice, then plated in 0,3 % agar for 7 days, colonies > 60 µm counted
# [6] = continuous exposure: substance mixed into upper agar layer for the whole 7-day incubation at 37°C, colonies > 60 µm counted, percent of untreated control
Compound,IC50 [1] [µg/mL],IC50 [2] [µg/mL],other results
"CC[C@@]1(O)C[C@H](O[C@H]2C[C@H](N)C[C@H](C)O2)c2c(O)c3c(c(O)c2[C@H]1O)C(=O)c1cccc(O)c1C3=O [Beispiel 53, 7-O-(4-Desoxy-α-L-daunosaminyl)-β-rhodomycinon]",0.04,0.05,–
"CC[C@@]1(O)C[C@H](O[C@H]2C[C@H](N)[C@@H](OCc3ccccc3)[C@H](C)O2)c2c(O)c3c(c(O)c2[C@H]1O[C@H]1C[C@H](N)[C@@H](OCc2ccccc2)[C@H](C)O1)C(=O)c1cccc(O)c1C3=O [Beispiel 51, 7,10-Di-O-(4-O-Benzyl-α-L-acosaminyl)-β-rhodomycinon]",0.4,0.68,–
"CC[C@@]1(O)C[C@H](O[C@H]2C[C@H](NC(=O)C(F)(F)F)[C@H](OC(=O)c3ccc([N+](=O)[O-])cc3)[C@H](C)O2)c2c(O)c3c(c(O)c2[C@H]1OC(=O)C(F)(F)F)C(=O)c1cccc(O)c1C3=O [Beispiel 18, 7-O-(4-O-Paranitrobenzoyl-3-N-trifluoracetyl-α-L-daunosaminyl)-10-O-trifluoracetyl-β-rhodomycinon]",0.13,> 1,–
"CC[C@@]1(O)C[C@H](O[C@H]2C[C@H](N)[C@H](O)[C@H](C)O2)c2c(O)c3c(c(O)c2[C@H]1O[C@H]1C[C@H](N)[C@H](O)[C@H](C)O1)C(=O)c1cccc(O)c1C3=O [Beispiel 29, 7,10-Di-O-α-L-daunosaminyl-β-rhodomycinon]",> 10,> 1,–
"CC[C@@]1(O)C[C@H](O[C@H]2C[C@H](N(C)C)[C@H](O)[C@H](C)O2)c2c(O)c3c(c(O)c2[C@H]1O[C@H]1C[C@H](N)[C@@H](O)[C@H](C)O1)C(=O)c1cccc(O)c1C3=O [Beispiel 40, 10-0-α-L-Acosaminyl-7-0-α-L-rhodosaminyl-β-rhodomycinon]",0.85,> 1,–
"CC[C@@]1(O[C@H]2C[C@H](N)[C@@H](O)[C@H](C)O2)C[C@H](O[C@H]2C[C@H](N)[C@@H](O)[C@H](C)O2)c2c(O)c3c(c(O)c2[C@H]1O[C@H]1C[C@H](N)[C@@H](O)[C@H](C)O1)C(=O)c1cccc(O)c1C3=O [Beispiel 44, 7,9,10-Tri-O-α-L-acosaminyl-β-rhodomycinon]",–,–,IC50 [3]: > 1 µg/mL
"CC[C@@]1(O)C[C@H](O)c2c(O)c3c(c(O)c2[C@H]1O[C@H]1C[C@H](N)[C@@H](O)[C@H](C)O1)C(=O)c1cccc(O)c1C3=O [Beispiel 10, 10-0-α-L-Acosaminyl-β-rhodomycinon]",0.9,6.5,–
CC[C@@]1(O)C[C@H](O[C@H]2C[C@H](N(C)C)[C@@H](O)[C@H](C)O2)c2c(O)c3c(c(O)c2[C@H]1O[C@H]1C[C@H](N(C)C)[C@@H](O)[C@H](C)O1)C(=O)c1cccc(O)c1C3=O [Beispiel 34],–,–,IC50 [4]: 0.026 µg/mL; IC50 [3]: 0.09 µg/mL
"CC[C@@]1(O)C[C@H](O[C@H]2C[C@H](NCC#N)[C@H](O)[C@H](C)O2)c2c(O)c3c(c(O)c2[C@H]1O)C(=O)c1cccc(O)c1C3=O [Beispiel 17, 7-O-(3-N-Cyanomethyl-α-L-daunosaminyl)-β-rhodomycinon]",–,–,IC50 [4]: 0.004 µg/mL; IC50 [3]: 0.09 µg/mL
"CC[C@@]1(O)C[C@H](O[C@H]2C[C@H](NCC#N)[C@H](O)[C@H](C)O2)c2c(O)c3c(c(O)c2[C@H]1O[C@H]1C[C@H](NCC#N)[C@H](O)[C@H](C)O1)C(=O)c1cccc(O)c1C3=O [Beispiel 30, 7,10-O-Di-(3-N-Cyanomethyl-α-L-daunosaminyl)-β-rhodomycinon]",–,–,IC50 [4]: 0.5 µg/mL; IC50 [3]: > 1 µg/mL
"CC[C@@]1(O)C[C@H](O[C@H]2C[C@H](NC(=O)C(F)(F)F)C[C@H](C)O2)c2c(O)c3c(c(O)c2[C@H]1O)C(=O)c1cccc(O)c1C3=O [Beispiel 52, 7-O-(4-Desoxy-3-N-trifluoracetyl-α-L-daunosaminyl)-β-rhodomycinon]",–,0.66,–
"CC[C@@]1(O)C[C@H](O)c2c(O)c3c(c(O)c2[C@H]1O[C@H]1C[C@H](NC(=O)C(F)(F)F)[C@H](OC(=O)c2ccc([N+](=O)[O-])cc2)[C@H](C)O1)C(=O)c1cccc(O)c1C3=O [Beispiel 9, 10-0-(4-0-Paranitrobenzoyl-3-N-trifluoracetyl-α-L-daunosaminyl)-β-rhodomycinon]",0.6,> 10,–
"CC[C@@]1(O)C[C@H](O)c2c(O)c3c(c(O)c2[C@H]1O[C@H]1C[C@H](NC(=O)C(F)(F)F)[C@@H](OC(=O)c2ccc([N+](=O)[O-])cc2)[C@H](C)O1)C(=O)c1cccc(O)c1C3=O [Beispiel 8, 10-0-(4-0-Paranitrobenzoyl-3-N-trifluor-acetyl-α-L-acosaminyl)-β-rhodomycinon]",> 1,> 1,–
"CC[C@@]1(O)C[C@H](O[C@H]2C[C@H](NC(=O)C(F)(F)F)[C@H](OC(C)=O)[C@H](C)O2)c2c(O)c3c(c(O)c2[C@H]1O[C@H]1C[C@H](NC(=O)C(F)(F)F)[C@H](OC(C)=O)[C@H](C)O1)C(=O)c1cccc(O)c1C3=O [Beispiel 28, 7,10-Di-O-(4-O-acetyl-3-N-trifluoracetyl-α-L-daunosaminyl)-β-rhodomycinon]",> 1,> 1,–
"CC[C@@]1(O)C[C@H](O[C@H]2C[C@H](N)[C@@H](O)[C@H](C)O2)c2c(O)c3c(c(O)c2[C@H]1O[C@H]1C[C@H](N)[C@H](O)[C@H](C)O1)C(=O)c1cccc(O)c1C3=O [Beispiel 37, 7-O-α-L-Acosaminyl-10-0-α-L-daunosaminyl-β-rhodomycinon]",> 1,> 1,–
"CC[C@@]1(O)C[C@H](O[C@H]2C[C@@H](N)[C@@H](O)[C@H](C)O2)c2c(O)c3c(c(O)c2[C@H]1O)C(=O)c1cccc(O)c1C3=O [Beispiel 46, 7-O-α-L-Ristosaminyl-β-rhodomycinon]",–,0.11,–
"CC[C@@]1(O)C[C@H](O[C@@H]2O[C@@H](C)[C@H](O)[C@@H](O)[C@H]2I)c2c(O)c3c(c(O)c2[C@H]1O)C(=O)c1cccc(O)c1C3=O [Beispiel 50, 7-O-(2,6-Didesoxy-2-iodo-α-L-mannopyranosyl)-β-rhodomycinon]",0.1,–,–
"COc1cccc2c1C(=O)c1c(O)c3c(c(O)c1C2=O)C[C@@](O)(C(=O)CO)C[C@@H]3O[C@H]1C[C@H](N)[C@H](O)[C@H](C)O1 [Adriamycin, reference compound]",–,–,IC50 [4]: 0.02 µg/mL; IC50 [3]: 0.04 µg/mL
"CC[C@@]1(O)C[C@H](O[C@@H]2O[C@@H](C)[C@@H](OC(C)=O)[C@@H](OC(C)=O)[C@H]2I)c2c(O)c3c(c(O)c2[C@H]1OC1CCCCO1)C(=O)c1cccc(O)c1C3=O (stereo partly drawn) [Beispiel 24, 7-O-(3,4-Di-O-acetyl-2,6-didesoxy-2-iodo-α-L-talopyranosyl)-10-O-tetrahydropyranyl-β-rhodomycinon]",–,–,1h-Inkubation IC50 [5]: >1 µg/mL; Dauerinkubation IC50 [6]: >1 µg/mL
"CC[C@@]1(O)C[C@H](O[C@H]2C[C@H](NC(=O)C(F)(F)F)[C@@H](O)[C@H](C)O2)c2c(O)c3c(c(O)c2[C@H]1O)C(=O)c1cccc(O)c1C3=O [Beispiel 45, 7-O-(3-N-Trifluoracetyl-α-L-acosaminyl)-ß-rhodomycinon]",–,0.29,–
"CC[C@@]1(O)C[C@H](O[C@H]2C[C@H](N)[C@H](O)[C@H](C)O2)c2c(O)c3c(c(O)c2[C@H]1OC1CCCCO1)C(=O)c1cccc(O)c1C3=O (stereo partly drawn) [Beispiel 21, 7-O-α-L-Daunosaminyl-10-O-tetrahydropyranyl-β-rhodomycinon]",–,–,1h-Inkubation IC50 [5]: >1 µg/mL; Dauerinkubation IC50 [6]: 0.5 µg/mL
"CC[C@@]1(O)C[C@H](O[C@H]2C[C@H](NC(=O)C(F)(F)F)[C@@H](OC(=O)c3ccc([N+](=O)[O-])cc3)[C@H](C)O2)c2c(O)c3c(c(O)c2[C@H]1O[C@H]1C[C@H](NC(=O)C(F)(F)F)[C@H](OC(=O)c2ccc([N+](=O)[O-])cc2)[C@H](C)O1)C(=O)c1cccc(O)c1C3=O [Beispiel 35, 7-0-(4-0-Paranitrobenzoyl-3-N-trifluoracetyl-α-L-acosaminyl)-10-0-(4-0-paranitrobenzoyl-3-N-trifluoracetyl-α-L-daunosaminyl)-β-rhodomycinon]",–,–,IC50 [4]: > 1 µg/mL; IC50 [3]: > 1 µg/mL
"CC[C@@]1(O)C[C@H](O[C@H]2C[C@H](NC(=O)C(F)(F)F)[C@@H](OC(=O)c3ccc([N+](=O)[O-])cc3)[C@H](C)O2)c2c(O)c3c(c(O)c2[C@H]1OC(=O)C(F)(F)F)C(=O)c1cccc(O)c1C3=O [Beispiel 13, 7-0-(4-0-Paranitrobenzoyl-3-N-trifluoracetyl-α-L-acosaminyl)-10-0-trifluoracetyl-β-rhodomycinon]",0.03,> 1,–
"CC[C@@]1(O)C[C@H](O[C@H]2C[C@H](NC(=O)C(F)(F)F)[C@@H](OC(=O)c3ccc([N+](=O)[O-])cc3)[C@H](C)O2)c2c(O)c3c(c(O)c2[C@H]1O)C(=O)c1cccc(O)c1C3=O [Beispiel 14, 7-0-(4-0-Paranitrobenzoyl-3-N-trifluoracetyl-α-L-acosaminyl)-β-rhodomycinon]",0.024,> 1,–
